The values that follow come from BindingDB's records for patent US12208088 (Genentech, 2025).

The assay deals with Mitogen-activated protein kinase kinase kinase kinase 1 (Homo sapiens, UniProt Q92918). Kind of assay: HPK1 Lantha Binding Assay. How it is done: For the binding assay, 4 ul 2×HPK1 and Eu-anti-GST antibody were added to each well of the assay plate using a Multidrop reagent dispenser. The solutions were incubated in a 23 C incubator for 1 h. To each well of the assay plate was added 4 ul 2× Tracer-222 using a Multidrop reagent dispenser. The solutions were again incubated in a 23 C incubator for 1 h. The results of the assay were read using an Envision plate reader with the following parameters: TR_FRET, 340 ex/615 and 665em; 100 usec Delay; and 200 usec integration.
Sequence of Mitogen-activated protein kinase kinase kinase kinase 1 (Q92918 whole entry): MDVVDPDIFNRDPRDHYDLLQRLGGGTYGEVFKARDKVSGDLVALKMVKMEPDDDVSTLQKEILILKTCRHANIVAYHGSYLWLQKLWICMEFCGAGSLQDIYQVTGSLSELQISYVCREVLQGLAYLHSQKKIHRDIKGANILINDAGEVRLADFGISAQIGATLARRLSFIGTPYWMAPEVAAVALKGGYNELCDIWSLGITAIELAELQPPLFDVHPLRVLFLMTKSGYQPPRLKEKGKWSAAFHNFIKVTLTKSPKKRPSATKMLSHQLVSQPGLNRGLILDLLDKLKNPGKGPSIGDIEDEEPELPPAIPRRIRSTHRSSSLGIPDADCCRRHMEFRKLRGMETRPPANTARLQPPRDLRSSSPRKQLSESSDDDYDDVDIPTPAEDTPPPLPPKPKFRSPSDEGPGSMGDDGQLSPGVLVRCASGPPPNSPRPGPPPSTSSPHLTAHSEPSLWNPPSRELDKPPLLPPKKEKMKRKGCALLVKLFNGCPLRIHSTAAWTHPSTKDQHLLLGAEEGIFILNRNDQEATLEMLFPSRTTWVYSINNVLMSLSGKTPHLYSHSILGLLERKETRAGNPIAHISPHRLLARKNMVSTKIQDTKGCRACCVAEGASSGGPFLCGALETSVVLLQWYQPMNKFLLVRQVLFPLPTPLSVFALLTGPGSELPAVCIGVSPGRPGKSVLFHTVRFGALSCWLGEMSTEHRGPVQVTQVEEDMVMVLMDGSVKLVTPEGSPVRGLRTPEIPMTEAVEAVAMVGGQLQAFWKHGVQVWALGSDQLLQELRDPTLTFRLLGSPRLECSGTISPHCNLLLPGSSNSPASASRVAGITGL
What is called Ki is the equilibrium dissociation constant of an inhibitor or competing ligand from its target. Low values mean higher affinity, high ones lower affinity. Turning to `CN(CC(C)(C)O)C(=O)c1c(N)ccc(-c2cnc3c(c2Cl)C2(CC2)CN3)c1F` [US12208088, Compound 35], the Ki worked out at 0.0228 µM.
The same measure for `CN(C)C(=O)c1ccc(-c2cnc3c(c2Cl)C2(CC=CC2)CN3)cc1Cl` [US12208088, Compound 192]: 0.163 µM.
With `N#CC1CCCCN1C(=O)c1cccc(-c2cnc3c(c2Cl)C2(CC=CC2)CN3)c1F` (configuration not stated) [US12208088, Compound 264], affinity was put at a Ki of 0.0115 µM.
`CN(C)C(=O)c1c(N)ccc(-c2cnc3c(c2Cl)C2(CCC(Cn4cncn4)C2)CN3)c1F` (configuration not stated) [US12208088, Compound 129] returned a Ki of 0.0234 µM.
Regarding `CC1CNC(=O)N1c1c(N)ccc(-c2cnc3c(c2Cl)C2(CC2)CN3)c1F` (configuration not stated) [US12208088, Compound 25], the Ki came to 0.0439 µM.
In turn, `O=C1NCCC1c1cccc(-c2cnc3c(c2)C2(CC2)CN3)c1F` (configuration not stated) [US12208088, Compound 92] registered a Ki of 0.0284 µM.
Take `CC(=O)Nc1cc(C(=O)N(C)C)cc(-c2cnc3c(c2Cl)C2(CC2)CN3)c1` [US12208088, Compound 33]: the affinity, expressed as Ki, was 0.771 µM.
